Read-outs that look alike come from different tables or passages of the source.
How the values were obtained:
[1] = cited from earlier work
[2] = tested on: Candida albicans (ATCC 10231); assay: Action kinetics in broth; assay type: cell-based; settings: Sabouraud broth pH 5.2±0.3, 35° C., gingerone 2%, sodium benzoate 3.3%, chlorhexidine digluconate 2.2%
Procedure: (§1) The object of this example is to distinguish a compound according to the invention (gingerone) from the preserving agents conventionally used for protecting cosmetic formulations against microbial contamination, as regards the action kinetics.
(§2) The solutions are prepared in Trypto-casein-soya (TS) broth for the bacteria and in Sabouraud broth for the yeast. These solutions are adjusted to pH 5.2±0.3.
(§3) For each microbial solution, a growth control consisting of the appropriate culture medium alone is prepared.
The solutions in Sabouraud broth (36 ml) are inoculated with the yeast (4 ml of suspension) to a final content of 10^6 cfu/ml.
(§4) The inoculated samples are then placed in an incubator-agitator at 35° C.±2° C. Samples are taken after 6 hours, 24 hours, 48 hours, 72 hours and 7 days. Decimal dilutions are then prepared in Eugon LT100 broth. These dilutions are left for 30 minutes±15 minutes at 25° C. in order to neutralize the preserving agents, and are then double-seeded on the surface of Petri dishes containing Eugon LT100 agar.
(§5) The Petri dishes are then incubated in an oven at 35° C.±2° C. for a variable time depending on the strain concerned: • 48 hours; S. aureus; • 5 days: E. faecalis and C. albicans.
(§6) The results are expressed for each solution, each strain and each contact time as the number of cfu/ml of stock solution.

[3] = tested on: Staphylococcus aureus (ATCC 6538); assay: Action kinetics in broth; assay type: cell-based; settings: TS broth pH 5.2±0.3, 35° C., gingerone 2%, sodium benzoate 3.3%, chlorhexidine digluconate 2.2%
Procedure: as §1, §2, §3
(§7) The solutions in TS broth (36 ml) are inoculated separately with each of the bacteria (4 ml of microbial suspension) to a final content of 10^6 cfu/ml of mixture.
as §4, §5, §6

[4] = tested on: Enterococcus faecalis (ATCC 33186); assay: Action kinetics in broth; assay type: cell-based; settings: TS broth pH 5.2±0.3, 35° C., gingerone 2%, sodium benzoate 3.3%, chlorhexidine digluconate 2.2%
Procedure: as §1, §2, §3, §7, §4, §5, §6

[5] = tested on: Candida albicans (Ca) ATCC 10231; assay: Challenge Test (artificial contamination) of cosmetic formula; assay type: cell-based; settings: 22° C., chlorhexidine digluconate 0.3%, gingerone 2%; for Log reduction number after 7 days of contact, relative to the control, C. albicans: 1st formula O/W emulsion, Amt weight %: phenoxyethanol 1%, sodium benzoate 0.6%; for Log reduction number after 7 days of contact, relative to the control, Candida albicans: Amt weight %: sodium benzoate 0.6%
Excerpt: (§8) 5 pure microorganism cultures are used.

[6] = tested on: Enterococcus faecalis (Ef) ATCC 33186; assay: as above; assay type: cell-based; settings: 22° C., chlorhexidine digluconate 0.3%, gingerone 2%
Excerpt: as §8

[7] = tested on: Aspergillus niger (An) ATCC 6275; assay: as above; assay type: cell-based; settings: 22° C., chlorhexidine digluconate 0.3%, gingerone 2%
Excerpt: as §8

[8] = tested on: Escherichia coli (Ec) ATCC 8739; assay: as above; assay type: cell-based; settings: 22° C., chlorhexidine digluconate 0.3%, gingerone 2%
Excerpt: as §8

[9] = tested on: Pseudomonas aeruginosa (Pa) ATCC 19429; assay: as above; settings: 22° C., chlorhexidine digluconate 0.3%, gingerone 2%
Procedure: The antimicrobial efficacy of a compound of formula (I) was evaluated via the Challenge Test or artificial contamination method.
The method of the challenge test consists of an artificial contamination of the sample with collection microbial strains (bacteria, yeasts and moulds) and evaluation of the number of revivable microorganisms seven days after the inoculation.
The gram-negative bacteria (Escherichia coli and Pseudomonas aeruginosa), gram-positive bacteria (Enterococcus faecalis), yeast (Candida albicans) and mould (Aspergillus niger) are seeded in the subculturing medium, respectively, the day before the inoculation for the bacteria and the yeast, and five days before the inoculation for the mould.
After homogenizing the microbial suspension, 0.2 ml of inoculum is introduced into each pill bottle (the suspensions are used pure: between 1×10^8 and 3×10^8 cfu per ml) and the microbial suspension in the 20 g of product (=cosmetic formula) is homogenized thoroughly using a spatula.
The content of microorganisms present in the product corresponds after homogenization to a concentration of 10^6 microorganisms per gram of product, i.e. inoculation to 1% of an inoculum containing 10^8 microorganisms per ml.
After 7 days of contact time between the microorganisms and the product at 22° C.±2° C. and in darkness, decimal dilutions are performed and the number of revivable microorganisms remaining in the product is counted.

[10] = contact time 0 hours, first series
[11] = contact time 0 hours, second series of Table 1
[12] = contact time 6 hours, first series
[13] = contact time 6 hours, second series of Table 1
[14] = contact time 24 hours, first series
[15] = contact time 24 hours, second series of Table 1
[16] = contact time 48 hours, first series
[17] = contact time 48 hours, second series of Table 1
[18] = contact time 72 hours, first series
[19] = contact time 72 hours, second series of Table 1
[20] = contact time 168 hours, first series
[21] = contact time 168 hours, second series of Table 1
[22] = 2nd formula lotion (pH 7 ± 0.2), phenoxyethanol 1%
[23] = 1st formula O/W emulsion, Amt weight %: phenoxyethanol 1%, sodium benzoate 0.6%
[24] = 2nd formula lotion (pH 7 ± 0.2), Amt weight %: sodium benzoate 0.6%, phenoxyethanol 1%
[25] = 3rd formula O/W emulsion, Amt weight %: sodium benzoate 0.6%

SMILES | Number of cfu counted after strain/solution contact time, Candida albicans ([2]; contact time 0 hours) | Number of cfu counted after strain/solution contact time, Candida albicans ([2]; contact time 6 hours) [cfu/ml] | Number of cfu counted after strain/solution contact time, Candida albicans ([2]; contact time 24 hours) [cfu/ml] | Number of cfu counted after strain/solution contact time, Candida albicans ([2]; contact time 48 hours) [cfu/ml] | Number of cfu counted after strain/solution contact time, Candida albicans ([2]; contact time 72 hours) [cfu/ml] | Number of cfu counted after strain/solution contact time, Candida albicans ([2]; contact time 168 hours) [cfu/ml] | Number of cfu counted after strain/solution contact time, Staphylococcus aureus [3, 10] | Number of cfu counted after strain/solution contact time, Staphylococcus aureus [3, 11] | Number of cfu counted after strain/solution contact time, Staphylococcus aureus [3, 12] [cfu/ml] | Number of cfu counted after strain/solution contact time, Staphylococcus aureus [3, 13] [cfu/ml] | Number of cfu counted after strain/solution contact time, Staphylococcus aureus [3, 14] [cfu/ml] | Number of cfu counted after strain/solution contact time, Staphylococcus aureus [3, 15] [cfu/ml] | Number of cfu counted after strain/solution contact time, Staphylococcus aureus [3, 16] [cfu/ml] | Number of cfu counted after strain/solution contact time, Staphylococcus aureus [3, 17] [cfu/ml] | Number of cfu counted after strain/solution contact time, Staphylococcus aureus [3, 18] [cfu/ml] | Number of cfu counted after strain/solution contact time, Staphylococcus aureus [3, 19] [cfu/ml] | Number of cfu counted after strain/solution contact time, Staphylococcus aureus [3, 20] [cfu/ml] | Number of cfu counted after strain/solution contact time, Staphylococcus aureus [3, 21] [cfu/ml] | Number of cfu counted after strain/solution contact time, Enterococcus faecalis ([4]; contact time 0 hours) | Number of cfu counted after strain/solution contact time, Enterococcus faecalis ([4]; contact time 6 hours) | further results
COc1cc(C)ccc1O [2-methoxy-4-methylphenol] | – | – | – | – | – | – | – | – | – | – | – | – | – | – | – | – | – | – | – | – | pKa ([1]; value given in the literature): 10.27
N=C(NCCCCCCNC(=N)NC(=N)Nc1ccc(Cl)cc1)NC(=N)Nc1ccc(Cl)cc1.O=C(O)[C@H](O)[C@@H](O)[C@H](O)[C@H](O)CO.O=C(O)[C@H](O)[C@@H](O)[C@H](O)[C@H](O)CO [Chlorhexidine digluconate] | 2.9 × 10^6 cfu/ml | <10 | <10 | <10 | <10 | <10 | 1.7 × 10^6 cfu/ml | 2.5 × 10^6 cfu/ml | <10 | <10 | <10 | <10 | <10 | <10 | <10 | <10 | <10 | <10 | 2.5 × 10^6 cfu/ml | <10 cfu/ml | Number of cfu counted after strain/solution contact time, Enterococcus faecalis ([4]; contact time 24 hours): <10 cfu/ml; Number of cfu counted after strain/solution contact time, Enterococcus faecalis ([4]; contact time 48 hours): <10 cfu/ml; Number of cfu counted after strain/solution contact time, Enterococcus faecalis ([4]; contact time 72 hours): <10 cfu/ml; Number of cfu counted after strain/solution contact time, Enterococcus faecalis ([4]; contact time 168 hours): <10 cfu/ml; Log reduction number after 7 days of contact, relative to the control, C. albicans [5]: 0.3 Log; Log reduction number after 7 days of contact, relative to the control, Candida albicans [5, 22]: 3 Log; Log reduction number after 7 days of contact, relative to the control, Candida albicans ([5]; 3rd formula O/W emulsion): >4 Log; Log reduction number after 7 days of contact, relative to the control, E. faecalis [6, 23]: 0.9 Log; Log reduction number after 7 days of contact, relative to the control, E. faecalis [6, 24]: 1.3 Log; Log reduction number after 7 days of contact, relative to the control, E. faecalis [6, 25]: 1.8 Log; Log reduction number after 7 days of contact, relative to the control, A. niger [7, 23]: 0.4 Log; Log reduction number after 7 days of contact, relative to the control, A. niger [7, 24]: 0.4 Log; Log reduction number after 7 days of contact, relative to the control, A. niger [7, 25]: 2.3 Log; Log reduction number after 7 days of contact, relative to the control, E. coli [8, 23]: >4 Log; Log reduction number after 7 days of contact, relative to the control, E. coli [8, 24]: 0.8 Log; Log reduction number after 7 days of contact, relative to the control, E. coli [8, 25]: >4 Log; Log reduction number after 7 days of contact, relative to the control, P. aeruginosa [9, 23]: 0.3 Log; Log reduction number after 7 days of contact, relative to the control, P. aeruginosa [9, 24]: 0.5 Log; Log reduction number after 7 days of contact, relative to the control, P. aeruginosa [9, 25]: 0 Log
O=C([O-])c1ccccc1.[Na+] [Sodium benzoate] | 2.9 × 10^6 cfu/ml | <10 | <10 | <10 | <10 | <10 | 1.7 × 10^6 cfu/ml | 2.5 × 10^6 cfu/ml | <10 | <10 | <10 | <10 | <10 | <10 | <10 | <10 | <10 | <10 | 2.5 × 10^6 cfu/ml | 4.4 × 10^5 cfu/ml | Number of cfu counted after strain/solution contact time, Enterococcus faecalis ([4]; contact time 24 hours): 7.0 × 10^2 cfu/ml; Number of cfu counted after strain/solution contact time, Enterococcus faecalis ([4]; contact time 48 hours): <10 cfu/ml; Number of cfu counted after strain/solution contact time, Enterococcus faecalis ([4]; contact time 72 hours): <10 cfu/ml; Number of cfu counted after strain/solution contact time, Enterococcus faecalis ([4]; contact time 168 hours): <10 cfu/ml; Log reduction number after 7 days of contact, relative to the control, C. albicans [5]: 0 Log; Log reduction number after 7 days of contact, relative to the control, Candida albicans [5, 22]: <0.5 Log; Log reduction number after 7 days of contact, relative to the control, Candida albicans ([5]; 3rd formula O/W emulsion): >4 Log; Log reduction number after 7 days of contact, relative to the control, E. faecalis [6, 23]: 0.6 Log; Log reduction number after 7 days of contact, relative to the control, E. faecalis [6, 24]: 1.4 Log; Log reduction number after 7 days of contact, relative to the control, E. faecalis [6, 25]: >4 Log; Log reduction number after 7 days of contact, relative to the control, A. niger [7, 23]: 0.5 Log; Log reduction number after 7 days of contact, relative to the control, A. niger [7, 24]: <0.5 Log; Log reduction number after 7 days of contact, relative to the control, A. niger [7, 25]: 3 Log; Log reduction number after 7 days of contact, relative to the control, E. coli [8, 23]: 0.3 Log; Log reduction number after 7 days of contact, relative to the control, E. coli [8, 24]: 0.7 Log; Log reduction number after 7 days of contact, relative to the control, E. coli [8, 25]: >4 Log
[H]/N=C(\N/C(=N/[H])NCCCCCCNC(=N)NC(=N)Nc1ccc(Cl)cc1)Nc1ccc(Cl)cc1 [chlorhexidine] | – | – | – | – | – | – | – | – | – | – | – | – | – | – | – | – | – | – | – | – | pKa ([1]; stated in the conclusion of Example 2, no source): 10.3

— US20120269739A1, “COMPOSITION, USE, AND PRESERVATION METHOD” (L'OREAL, priority 2009, published 2012)
